Measured values reported in patent publication US9451775B2, “Heterocyclic compounds as pesticides” (Bayer Intellectual Property GmbH, priority 2008, dated 2016).
Like-named read-outs stand apart in the source and are kept apart here.

Legend:
[1] = test system: green peach aphid (Myzus persicae); assay: Myzus test (spray treatment); type: in vivo; settings: foliar, read-out: activity (effect in %, aphids killed)
Protocol: Myzus Test (Spray Treatment)
• Solvents: 78.0 parts by weight of acetone • 1.5 parts by weight of dimethylformamide • Emulsifier: 0.5 part by weight of alkylaryl polyglycol ether
To produce a suitable preparation of active compound, 1 part by weight of active compound is mixed with the stated amounts of solvents and emulsifier, and the concentrate is diluted with emulsifier-containing water to the desired concentration.
Discs of leaves of Chinese cabbage (Brassica pekinensis) which are heavily infested by all stages of the green peach aphid (Myzus persicae) are sprayed with an active compound preparation of the desired concentration.
After the desired period of time, the effect in % is determined. 100% means that all aphids have been killed; 0% means that none of the aphids have been killed.

[2] = logP determination by HPLC (formic acid method); type: physicochemical; settings: acidic range (pH 3.4), 55° C., read-out: logP (HCOOH)
Protocol: 1) Description of the method for determining the logP values (formic acid method)
The logP values given in the table were determined in accordance with EEC Directive 79/831 Annex V.A8 by HPLC (High Performance Liquid Chromatography) on a reversed-phase column (C18). Temperature: 55° C.
Mobile phases for the determination in the acidic range (pH 3.4):
Mobile phase A: Acetonitrile+1 ml of formic acid/litre. Mobile phase B: water+0.9 ml of formic acid/litre.
Gradient: from 10% mobile phase A/90% mobile phase B to 95% mobile phase A/5% mobile phase B in 4.25 min.
Calibration was carried out using unbranched alkan-2-ones (having 3 to 16 carbon atoms) with known logP values (determination of the logP values by the retention times using linear interpolation between two successive alkanones). The lambda max values were determined in the maxima of the chromatographic signals using the UV spectra from 200 nm to 400 nm.

[3] = application rate of 500 g/ha, sprayed Chinese cabbage leaf discs
[4] = reversed-phase HPLC column (C18), pH 3.4, HPLC on reversed-phase column (C18)

| Compound | pest or weed control at 500 g/ha [1, 3] | chromatographic logP [2, 4] | pest or weed control at 500 g/ha ([1]; in Brassica rapa) | chromatographic logP ([2]; HPLC on reversed-phase column (C18)) |
| --- | --- | --- | --- | --- |
| Cc1nc(-c2cccnc2)sc1-n1ccc(-c2ccccc2C(F)(F)F)n1 [compound 38] | ≥ 80% | 3.94 | – | – |
| Cc1nc(-c2cccnc2)sc1-n1cc(-c2ccccn2)cn1 [compound 39] | ≥ 80% | 1.55 | – | – |
| Cc1nc(-c2cccnc2)sc1-n1ccc(-c2ccco2)n1 [compound 40] | ≥ 80% | 2.43 | – | – |
| Cc1nc(-c2cccnc2)sc1-c1ccnc(-c2ncccc2Cl)n1 [compound 41] | ≥ 80% | 2.03 | – | – |
| Cc1nc(-c2cccnc2)sc1-c1cccc(-c2ccccc2Cl)n1 [compound 42] | ≥ 80% | 3.97 | – | – |
| Cc1nc(-c2cccnc2)sc1-c1cncc(-c2cc(C)n(C)n2)n1 [compound 43] | ≥ 80% | 1.86 | – | – |
| Cc1cc(-c2nccc(-c3sc(-c4cccnc4)nc3C)n2)n(C)n1 [compound 44] | ≥ 80% | 2.4 | – | – |
| Cc1nc(-c2cccnc2)sc1-c1ccnc(C(F)(F)Cl)n1 [compound 45] | ≥ 80% | 2.95 | – | – |
| Cc1nc(-c2cccnc2)sc1-c1ccnc(-c2cccc(Cl)n2)n1 [compound 46] | ≥ 80% | 2.47 | – | – |
| Cc1cc(=O)n(-c2nccc(-c3sc(-c4cccnc4)nc3C)n2)[nH]1 [compound 47] | ≥ 80% | 1.48 | – | – |
| Cc1nc(-c2cccnc2)sc1-c1ccnc(-c2ncc(F)cc2F)n1 [compound 48] | ≥ 80% | 2.08 | – | – |
| Cc1nc(-c2cccnc2)sc1-c1ccnc(-c2cnccn2)n1 [compound 51] | ≥ 80% | 1.59 | – | – |
| Cc1nc(-c2cccnc2)sc1-c1ccnc(-c2ccco2)n1 [compound 52] | ≥ 80% | 2.35 | – | – |
| COC(=O)/C(=N\O)c1nccc(-c2sc(-c3cccnc3)nc2C)n1 [compound 53] | ≥ 80% | 1.58 | – | – |
| Cc1cccc(-c2nccc(-c3sc(-c4cccnc4)nc3C)n2)n1 [compound 54] | ≥ 80% | 1.49 | – | – |
| Cc1ccc(-c2nccc(-c3sc(-c4cccnc4)nc3C)n2)nc1C [compound 55] | ≥ 80% | 1.49 | – | – |
| Cc1nc(-c2nccc(-c3sc(-c4cccnc4)nc3C)n2)cs1 [compound 56] | ≥ 80% | 2.08 | – | – |
| CCc1cccc(-c2nccc(-c3sc(-c4cccnc4)nc3C)n2)n1 [compound 57] | ≥ 80% | 1.88 | – | – |
| CCCc1cccc(-c2nccc(-c3sc(-c4cccnc4)nc3C)n2)n1 [compound 58] | ≥ 80% | 2.25 | – | – |
| COc1cc(OC)nc(-c2nccc(-c3sc(-c4cccnc4)nc3C)n2)n1 [compound 59] | ≥ 80% | 2.12 | – | – |

| Compound | pest or weed control at 500 g/ha [1, 3] | chromatographic logP [2, 4] | pest or weed control at 500 g/ha ([1]; in Brassica rapa) | chromatographic logP ([2]; HPLC on reversed-phase column (C18)) |
| --- | --- | --- | --- | --- |
| Cc1nc(-c2cccnc2)sc1-c1ccnc(C(F)(F)C(F)(F)C(F)(F)F)n1 [compound 60] | – | – | ≥ 80% | 3.84 |
| COCc1nccc(-c2sc(-c3cccnc3)nc2C)n1 [compound 61] | ≥ 80% | 1.57 | – | – |
| Cc1nc(-c2cccnc2)sc1-c1nc(C(C)C)no1 [compound 62] | ≥ 80% | 3.23 | – | – |
| Cc1nc(-c2cccnc2)sc1-c1nc(-c2cccnc2)no1 [compound 63] | ≥ 80% | 2.51 | – | – |
| Cc1nc(-c2cccnc2)sc1-c1nc(C(F)(F)F)no1 [compound 64] | ≥ 80% | 3.34 | – | – |
| Cc1cc(C)nc(-c2nccc(-c3sc(-c4cccnc4)nc3C)n2)c1 [compound 65] | ≥ 80% | 1.36 | – | – |
| Cc1nc(-c2cccnc2)sc1-c1ccnc(-n2[nH]c(C(F)(F)F)cc2=O)n1 [compound 66] | ≥ 80% | 2.9 | – | – |
| c1cnc(N2CCOC(c3cnc(-c4cccnc4)s3)=N2)nc1 [compound 67] | ≥ 80% | 1.9 | – | – |
| Cc1nc(-c2cccnc2)sc1-c1cccc(S(C)(=O)=O)n1 [compound 68] | ≥ 80% | 1.62 | – | – |
| Cc1nc(-c2cccnc2)sc1-c1ccnc(Cn2cncn2)n1 [compound 69] | ≥ 80% | 1.2 | – | – |
| c1cnc(-c2noc(-c3cnc(-c4cccnc4)s3)n2)nc1 [compound 70] | ≥ 80% | 1.4 | – | – |
| FC(F)(F)c1noc(-c2cnc(-c3cccnc3)s2)n1 [compound 71] | ≥ 80% | 2.7 | – | – |
| Cc1nc(-c2cccnc2)sc1-c1nc(-c2cc3ccccc3cn2)no1 [compound 72] | ≥ 80% | 3.11 | – | – |
| Cc1nc(-c2cccnc2)sc1-c1nc(-c2nc(C)c(C)c(C)n2)no1 [compound 73] | ≥ 80% | 2.34 | – | – |
| COc1cc(OC)nc(-c2noc(-c3sc(-c4cccnc4)nc3C)n2)n1 [compound 74] | ≥ 80% | 2.81 | – | – |
| Cc1nc(-c2cccnc2)sc1-c1nc(C(F)(F)F)co1 [compound 75] | ≥ 80% | 2.97 | – | – |
| Cc1nc(-c2cccnc2)sc1-c1ccn(-c2nnc(C(C)C)s2)n1 [compound 76] | ≥ 80% | 3.11 | – | – |
| Cc1nc(-c2cccnc2)sc1-c1ccn(-c2ncccc2[N+](=O)[O-])n1 [compound 77] | ≥ 80% | 2.5 | – | – |
| Cc1nc(-c2cccnc2)sc1-c1ccn(-c2cnc(C(F)(F)F)nc2)n1 [compound 78] | ≥ 80% | 2.99 | – | – |
| CCOc1cc(OCC)nc(-n2ccc(-c3sc(-c4cccnc4)nc3C)n2)n1 [compound 79] | ≥ 80% | 3.94 | – | – |

| Compound | pest or weed control at 500 g/ha [1, 3] | chromatographic logP [2, 4] | pest or weed control at 500 g/ha ([1]; in Brassica rapa) | chromatographic logP ([2]; HPLC on reversed-phase column (C18)) |
| --- | --- | --- | --- | --- |
| Cc1nc(-c2cccnc2)sc1-c1ccn(-c2nnc(C(F)(F)F)n2C)n1 [compound 80] | ≥ 80% | 2.27 | – | – |
| COc1cc(OC)nc(-n2ccc(-c3sc(-c4cccnc4)nc3C)n2)n1 [compound 81] | ≥ 80% | 2.8 | – | – |
| Cc1nc(-c2cccnc2)sc1-c1ccn(-c2cnccc2F)n1 [compound 82] | ≥ 80% | 2.23 | – | – |
| Cc1nc(-c2cccnc2)sc1-c1ccn(-c2nnc(C(C)(C)C)s2)n1 [compound 83] | ≥ 80% | 3.63 | – | – |
| CCc1nnc(-n2ccc(-c3sc(-c4cccnc4)nc3C)n2)s1 [compound 84] | ≥ 80% | 2.61 | – | – |
| Cc1nc(-c2cccnc2)sc1-c1ccn(-c2nnc(C(F)F)s2)n1 [compound 85] | ≥ 80% | 2.8 | – | – |
| Cc1nc(-c2cccnc2)sc1-c1ccn(-c2nnc(C3CC3)s2)n1 [compound 86] | ≥ 80% | 2.72 | – | – |
| Cc1nc(-c2cccnc2)sc1-c1ccn(-c2nc(Cl)cs2)n1 [compound 87] | ≥ 80% | 3.47 | – | – |
| c1cnc(-c2nccc(-c3cnc(-c4cccnc4)s3)n2)nc1 [compound 88] | ≥ 80% | 1.05 | – | – |
| c1cnc(-n2ccc(-c3cnc(-c4cccnc4)s3)n2)nc1 [compound 89] | ≥ 80% | 1.48 | – | – |
| Cc1nc(-c2cccnc2)sc1-c1ccncn1 [compound 90] | ≥ 80% | 1.39 | – | – |
| Cc1nc(-c2cccnc2)sc1-c1nc(-c2nnc(C(F)(F)F)n2C)no1 [compound 91] | ≥ 80% | 2.41 | – | – |
| Cc1nc(-c2cccnc2)sc1-c1ccn(-c2cccc(Cl)n2)n1 [compound 92] | ≥ 80% | 3.84 | – | – |
| Cc1nc(-c2cccnc2)sc1-c1nc(N)nc(C(C)F)n1 (centres unmarked) [compound 93] | ≥ 80% | 1.86 | – | – |
| Cc1nc(-c2cccnc2)sc1-c1nccc(C(F)(F)F)n1 [compound 94] | ≥ 80% | 3.14 | – | – |
| COC(=O)c1cccc(-c2sc(-c3cccnc3)nc2C)n1 [compound 95] | ≥ 80% | 2.03 | – | – |
| Cc1nc(-c2cccnc2)sc1-c1cccc(N2CCOCC2)n1 [compound 96] | ≥ 80% | 2.58 | – | – |
| Cc1nc(-c2cccnc2)sc1-c1cccc(-n2cccn2)n1 [compound 97] | ≥ 80% | 2.93 | – | – |
